# Legend:
# [1] = test system: Gram-negative and Gram-positive strains; assay: MIC over all tested strains (range, geometric mean); format: cell-based; parameters: GM (geometric mean of MIC values from all microbial strains): unit not given here; conditions: all strains of Table 2
# Text: (§1) E. coli ATCC25922, P. aeruginosa ATCC27853, S. aureus ATCC29213, S. epidermidis ATCC12228, S. faecalis ATCC29212 and B. subtilis CMCC63501 were obtained from the College of Veterinary Medicine, Northeast Agricultural University (Harbin, China), E. coli K88, E. coli CVCC1515 and P. aeruginosa ATCC15442 were bestowed by Prof. J.H. Wang (Gene Engineering Laboratory, Feed Research Institute, Chinese Academy of Agricultural Sciences Beijing, China) and E. coli UB1005 was kindly provided by Prof. Q.S. Qi (State Key Laboratory of Microbial Technology, Shandong University, China). […] Briefly, 50 µl of approximate 0.5–1 × 10^6 colony forming units (CFU)/ml of cells were diluted in Mueller-Hinton broth and distributed to 96-well plate, 50 µl of twofold peptides were added and the plates was incubated at 37°C for 18–24 h. The MIC values were calculated as the lowest peptide concentration that prevented visible turbidity and negative control of the pure broth without microbes. The tests were performed at least three times in duplicate.
# E. coli ATCC25922 [2] = assay: MIC in the presence of physiological salts; format: cell-based, Escherichia coli; parameters: unit not given here
# Text: as §1
# (§2) The stability of peptides was tested in the MIC assay in different environments, including salt sensitivity, human serum, thermal stability and susceptibility to enzymes. For salt sensitivity, 0.5–1 × 10^6 CFU/ml of P. aeruginosa ATCC27853 and E. coli ATCC25922 were treated with peptides, while different salts were added to MHB, and the final concentrations of physiological salts were as follows: 150 mM NaCl, 4.5 mM KCl, 1 mM MgCl2, 6 µM NH4Cl, 8 µM ZnCl2, 4 µM FeCl3 and […] [33]. Except salt sensitivity, only E. coli ATCC25922 was treated with peptides. […] For testing peptide sensitivity to the proteolytic enzymes, the peptides were incubated in advance at 37°C for 1 h with a 1 mg/ml final concentration of the proteolytic enzymes (trypsin, pepsin, papain and proteinase K). For testing thermal stability, incubation occurred at 100°C for 1 h. After these treatments, the procedures were same as MIC assay described above.
# P. aeruginosa ATCC27853 = assay: MIC in the presence of physiological salts; format: cell-based, Pseudomonas aeruginosa; parameters: unit not given here
# Text: as §1, §2
# E. coli ATCC25922 [3] = assay: MIC after treatment with serum, enzymes and heat; format: cell-based, Escherichia coli; conditions: E. coli ATCC25922
# Text: as §1, §2
# E. coli UB1005 = assay: Cytoplasmic membrane electrical potential, diSC3-5; format: cell-based, Escherichia coli; conditions: diSC3-5 release over 600 s
# Method: Peptides could alter the electrical potential of cytoplasmic membrane, and this potential that was measured by using E. coli UB1005 cells and diSC3-5 (Sigma), a membrane potential-sensitive fluorescent dye, as previously described, [35]. E. coli UB1005 was cultured to logarithmic phase in MHB, harvested by centrifugation, washed twice with buffer (5 mM of HEPES and 20 mM of glucose, pH 7.4) and resuspended to an OD600 of 0.05 in the identical buffer. The dye (diSC3-5) was added to above buffer at a final concentration of 0.4 µM. And the bacteria were incubated to take up the dye for 90 min. KCl was added to a final concentration of 0.1 M for equilibrating K^+ concentration between extracellular and intracellular environment, and then the bacteria were incubated at room temperature for 10 min. The cell suspension (2 ml) was placed in a 1-cm cuvette, and the peptides were added to different concentrations. The fluorescence intensity changes were monitored by using an F-4500 fluorescence spectrophotometer (Hitachi, Japan) with an excitation wavelength of 622 nm and an emission wavelength of 670 nm.
# [4] = test system: resistant variants of P. aeruginosa; assay: microbe, parasite or virus in culture; format: cell-based; conditions: Pseudomonas aeruginosa, ATCC15442
# Text: as §1
# [5] = all kinds of salts in physiological concentrations
structure (smiles),measurement,setting,value
"CC[C@H](C)[C@H](NC(=O)CN)C(=O)NCC(=O)N[C@@H](C)C(=O)N[C@H](C(=O)N[C@@H](CC(C)C)C(=O)N[C@@H](CCCCN)C(=O)N[C@H](C(=O)N[C@@H](CC(C)C)C(=O)N[C@H](C(=O)N[C@H](C(=O)NCC(=O)N[C@@H](CC(C)C)C(=O)N1CCC[C@H]1C(=O)N[C@@H](C)C(=O)N[C@@H](CC(C)C)C(=O)N[C@H](C(=O)N[C@@H](CO)C(=O)N[C@@H](Cc1c[nH]c2ccccc12)C(=O)N[C@H](C(=O)N[C@@H](CCCCN)C(=O)N[C@@H](CCCNC(=N)N)C(=O)N[C@@H](CCCCN)C(=O)N[C@@H](CCCNC(=N)N)C(=O)N[C@@H](CCC(N)=O)C(=O)N[C@@H](CCC(N)=O)C(N)=O)[C@@H](C)CC)[C@@H](C)CC)[C@@H](C)O)[C@@H](C)O)C(C)C)C(C)C [ME26, melittin, reference compound]",GM (geometric mean of MIC values from all microbial strains),[1],2.2
same,"MIC, FeCl3",E. coli ATCC25922 [2]; 4 µM FeCl3 in MHB,2
same,"MIC, NH4Cl",E. coli ATCC25922 [2]; 6 µM NH4Cl in MHB,2
same,"MIC, ZnCl2",E. coli ATCC25922 [2]; 8 µM ZnCl2 in MHB,4
same,"MIC, MgCl2",E. coli ATCC25922 [2]; 1 mM MgCl2 in MHB,4
same,"MIC, KCl",E. coli ATCC25922 [2]; 4.5 mM KCl in MHB,2
same,"MIC, NaCl",E. coli ATCC25922 [2]; 150 mM NaCl in MHB,4
same,"MIC, Mix",E. coli ATCC25922 [2]; [5],4
same,"MIC, CaCl2",E. coli ATCC25922 [2]; in MHB,2
same,"MIC, Control","E. coli ATCC25922 [2]; no added salts, unit not given",2
same,"MIC, CaCl2",P. aeruginosa ATCC27853; 2.5 µM CaCl2 in MHB,2
same,"MIC, FeCl3",P. aeruginosa ATCC27853; 4 µM FeCl3 in MHB,2
same,"MIC, NH4Cl",P. aeruginosa ATCC27853; 6 µM NH4Cl in MHB,2
same,"MIC, ZnCl2",P. aeruginosa ATCC27853; 8 µM ZnCl2 in MHB,2
same,"MIC, MgCl2",P. aeruginosa ATCC27853; 1 mM MgCl2 in MHB,8
same,"MIC, KCl",P. aeruginosa ATCC27853; 4.5 mM KCl in MHB,2
same,"MIC, NaCl",P. aeruginosa ATCC27853; 150 mM NaCl in MHB,2
same,"MIC, Mix",P. aeruginosa ATCC27853; [5],16
same,"MIC, Control","P. aeruginosa ATCC27853; no added salts, unit not given",2
same,"MIC, Serum 25%",E. coli ATCC25922 [3]; 25% human serum in MHB,8
same,"MIC, Serum 50%",E. coli ATCC25922 [3]; 50% human serum in MHB,8
same,"MIC, Heat 100°C",E. coli ATCC25922 [3]; peptide incubated at 100°C for 1 h,2
same,"MIC, Enzymes Caroid",E. coli ATCC25922 [3]; peptide pre-incubated 1 h at 37°C with 1 mg/ml enzyme (method names papain),>128
same,"MIC, Enzymes Pepsin",E. coli ATCC25922 [3]; peptide pre-incubated 1 h at 37°C with 1 mg/ml pepsin,>128
same,"MIC, Enzymes Proteinase K",E. coli ATCC25922 [3]; peptide pre-incubated 1 h at 37°C with 1 mg/ml proteinase K,32
same,"MIC, Enzymes Trypsin",E. coli ATCC25922 [3]; peptide pre-incubated 1 h at 37°C with 1 mg/ml trypsin,>128
same,cytoplasmic membrane depolarization (in words),E. coli UB1005,able to permeabilize the bacterial cell membrane even at a lower concentration than their MICs
CNC(C)C1CCC(N)C(OC2C(N)CC(N)C(OC3OCC(C)(O)C(NC)C3O)C2O)O1 (stereo not shown) [gentamicin],MIC,[4],> 256 µM
